Data as given in PMC5688144, “Assay interference and off-target liabilities of reported histone acetyltransferase inhibitors” (Nature Communications, 2017).
Entries after “also recorded” stand apart in the source; their conditions may differ.

What was measured:
[1] = molecular target: T1, AmpC β-lactamase (Escherichia coli, UniProt P00811); test: biochemical; design: species or system E. coli; settings: 10 μM compound; for AmpC aggregation counter-screen: ± 0.01% Triton X-100
T1 construct: Recombinant E. coli AmpC (amino acids 20–377); purchased MyBioSource.com
Method: Selected compounds were assessed for aggregation using a modified AmpC β-lactamase counter-screen[24],[32],[64]. Recombinant E. coli AmpC (amino acids 20–377) was obtained from MyBioSource.com. Testing was performed in ALARM NMR buffer (25 mM sodium phosphate, pH 7.0) in flat-bottom UV-transparent 96-well microplates in 150 μL reaction volumes. Compounds were tested in triplicate at 10 μM final concentrations in either the presence or absence of freshly-prepared 0.01% Triton X-100 (v/v). Final concentration of DMSO was 2.0% (v/v). Compounds were incubated with ~5 nM AmpC in 147 μL reaction buffer for 5 min at RT, followed by the addition of 3 μL of nitrocefin substrate (100 μM final concentration). Reaction solutions were gently mixed by pipetting up and down three times using a multichannel pipette. […] Percent activity was normalized to DMSO-only controls. Fluconazole and lidocaine were included as negative aggregation control compounds. Rottlerin was included as a positive aggregation control compound. Aggregators were defined as compounds with significant detergent-dependent changes in AmpC activity (t-test, adjusted P-value <0.05; mean differences greater than 30%). Activators were defined as compounds that increased AmpC enzymatic activity.

[2] = tested on: p300/CBP; settings: cited from earlier work
[3] = molecular target: T2, human La antigen (Homo sapiens, UniProt P05455, T302N); test: ALARM NMR; assay type: binding; settings: 400 μM compound
T2 construct: amino acids 100–324 of the human La antigen (plus T302N mutation); 6xHis (N); 6xHis (C); host or cells: Escherichia coli Rosetta cells
T2 sequence (P05455 100-324 T302N): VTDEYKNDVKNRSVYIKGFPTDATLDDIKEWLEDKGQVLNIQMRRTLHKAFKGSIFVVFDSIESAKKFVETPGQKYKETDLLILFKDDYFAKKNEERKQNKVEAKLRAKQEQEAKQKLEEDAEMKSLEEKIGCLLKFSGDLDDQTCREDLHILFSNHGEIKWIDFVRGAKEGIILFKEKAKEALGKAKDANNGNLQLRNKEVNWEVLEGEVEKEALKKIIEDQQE
Excerpt: The gene encoding amino acids 100–324 of the human La antigen (plus T302N mutation) was cloned into pET28b + vector (Novagen) with both an N- and C-terminal 6xHis tag (addgene.org, plasmid ID 90209). The sequence identity of the ALARM NMR plasmid construct was verified by Sanger sequencing of the transgene region and next-generation sequencing of the whole plasmid.
Plasmid was transformed into Escherichia coli Rosetta cells (Novagen) and cultured in M9 minimal media. The La antigen was labeled by adding ^13C-labeled amino acid precursors ([3-^13C]-α-ketobutyrate and [3,3′-^13C]-α-ketoisovalerate sodium salts; Cambridge Isotope Laboratories; 250 mg L^−1 final concentrations) to culture medium 30 min before induction with IPTG (1 mM final concentration). Bacteria were collected after incubation at 25 °C for 8 h and washed with ice-cold phosphate-buffered saline (PBS). Washed cells were lysed by French press in ice-cold lysis buffer (50 mM Tris, pH 7.6, 300 mM NaCl, 10% glycerol (v/v), 5 mM β-mercaptoethanol (BME), 5 mM imidazole, 2 mM MgCl2, benzonase, and protease inhibitor cocktail), followed by an additional brief sonication step (3 × 15 s pulse sequence) on ice. This lysed solution was centrifuged (30,000×g for 30 min, two cycles) to remove cellular debris, then loaded onto a pre-washed Ni-NTA bead column (Qiagen) kept at 4 °C and washed with buffer (50 mM Tris, pH 7.6, 300 mM NaCl, 10% glycerol (v/v), 5 mM BME, 5 mM imidazole). The La antigen was eluted with an elution buffer (50 mM Tris, pH 7.6, 300 mM NaCl, 10% glycerol (v/v), 5 mM BME, imidazole gradient ranging from 5 mM to 0.5 M). […] Aliquots were flash-frozen in liquid N2 and stored at −80 °C until further use. Before use, aliquots of ~150 μM protein were incubated in the presence of 20 mM DTT at 37 °C for 1 h, then dialyzed (25 mM sodium phosphate buffer, pH 7.0 (no DTT)) in 16 h cycles at 4 °C with constant nitrogen bubbling and with gentle stirring, for three total buffer cycles.
For standard testing conditions, the [^1H-^13C]-HMQC spectra were acquired in 25 mM sodium phosphate buffer, pH 7.0, 10% D2O (v/v; CIL) ± 400 μM test compounds delivered from the aforementioned stock solutions, and ± 20 mM non-deuterated DTT. Final concentration of DMSO was 4.0% (v/v). Reaction solutions were mixed, then centrifuged for 5 min (1000×g) in non-binding 384-well microplates at RT, then incubated at 37 °C for 1 h and then 30 °C for 15 h before obtaining spectra. Samples were checked for evidence of gross precipitation. Data were recorded at 298 K on a Bruker UltraShield 700 MHz NMR spectrometer equipped with a Bruker 1.7 mm TCI Cryoprobe and Bruker SampleJet autosampler. Samples were tested at 50 μM protein concentrations using 16 scans, 2048 complex points in F2, and 80 points in F1 using standard protein [^1H-^13C]-HMQC and water suppression pulse sequences.
Data were analyzed in TopSpin™ 3.5 (Bruker). Reactions were normalized to equivalent DMSO controls. Non-reactive compounds were identified by the absence of chemical shifts or changes in peak intensities (^13C-methyl) ± 20 mM DTT.

[4] = Absorbance spectra; assay type: physicochemical; settings: 25 mM sodium phosphate, pH 7.0
Method: Selected test compounds were assessed for absorption between 300 and 750 nm. Most compound absorption spectra were obtained at 100, 50, and 10 μM final compound concentrations in ALARM NMR buffer (25 mM sodium phosphate, pH 7.0). Final concentration of DMSO was constant at 2.0% (v/v). Compounds were allowed to incubate at RT in buffer for 10 min in UV-transparent polystyrene 384-well plates. Absorbance spectra were then obtained on a SpectraMax M3 or BMG Labtech CLARIOstar microplate reader at 25 °C. Significant absorbance was defined as molar absorptivity constants greater than 2000 M^−1 cm^−1 at wavelengths greater than 300 nm.

[5] = Autofluorescence counter-screen; assay type: physicochemical; settings: autofluorescence at eight fluorophore settings; 32 nM-100 μM compound
Method: Selected test compounds were assessed for autofluorescence using an adaption of published procedures. […] Final concentration of DMSO was constant at 1.0% (v/v). Compounds and fluorophore standards were transferred as 10 mM DMSO stock solutions to 384-well black polystyrene microplates via Echo 550 dispenser. The plate arrangement was purposefully designed to minimize optical crosstalk by fluorophore standards. All measurements were performed in ALARM NMR buffer (25 mM sodium phosphate, pH 7.0) at 25 °C. Aliquots of 20 μL buffer were dispensed into microplate wells via ThermoFisher Multidrop dispenser. Compounds were shaken for 1 min on a plate shaker, centrifuged briefly for 1 min at 1000×g, then allowed to incubate at RT in buffer for 10 min before measuring fluorescence intensity on a SpectraMax M3 plate reader under reduced lighting. […] Bandwidth filters were set to default mode. Fluorescence intensity was measured for each test compound using each of the eight fluorophore standard settings. Fluorophores present on each plate were then used to construct normalized fluorescence dose-responses (“fluorophore-equivalent concentrations”, FEC). Fluorescence intensity for each test compound was converted to the appropriate FEC.

[6] = Fluorescence quenching counter-screen; assay type: physicochemical; settings: 10 μM fluorophore; 32 nM-100 μM compound
Method: Selected test compounds were assessed for fluorescence quenching using adaptions of previously published procedures[9],[24]. Briefly, test compounds and individual fluorophore standards were incubated together. The fluorescence intensity of these mixtures was compared to the fluorescence intensity of the same fluorophore standards minus test compounds. Each microplate contained positive control columns (DMSO plus fixed concentration of a single fluorophore), negative control columns (DMSO), and experimental wells (test compounds plus fixed concentration of a single fluorophore). […] Final concentration of DMSO was constant at 2.0% (v/v). […] All measurements were performed in ALARM NMR buffer (25 mM sodium phosphate, pH 7.0) at 25 °C. Aliquots of 20 μL buffer were dispensed into microplate wells via ThermoFisher Multidrop dispenser. Microplates were shaken for 1 min on a plate shaker, centrifuged briefly for 1 min at 1000×g, then allowed to incubate at RT for 10 min before measuring fluorescence intensity on a SpectraMax M3 plate reader under reduced lighting. Instrument settings for each fluorophore were unchanged from the aforementioned autofluorescence studies.

[7] = tested on: caspase 3/7 activity in HEK293T and MCF7 cells; test: Live-cell caspase 3/7 activity; assay type: cell-based; settings: 24 h after compound addition
Method: (§1) For cell growth analyses, cells were seeded in 96-well plates, treated with compounds for the indicated times, and monitored over time in a live cell Incucyte™ ZOOM imager (Essen Biosciences). To label apoptotic and dead cells, caspase 3/7 activatable DEVD recognition motif NucView™ 488 DNA intercalating dye (1:1000 dilution, Essen Biosciences) and SYTOX™ green nucleic acid stain (1:1000 dilution, Invitrogen) were used respectively, following manufacturer instructions.

[8] = tested on: HEK293T and MCF7 cells; test: Membrane permeability (SYTOX green uptake); assay type: cell-based; settings: for membrane permeability: Sytox green dead-cell dye uptake
Method: as §1

[9] = tested on: H3K27ac levels in HEK293T and MCF7 cells; test: Cellular H3K27ac western blot; assay type: cell-based; settings: 10 and 30 μM compound
Method: (§2) Cells were cultured in DMEM supplemented with 10% fetal bovine serum (Winsent), penicillin (100 U mL^−1), and streptomycin (100 µg mL^−1). Compounds dissolved in DMSO or matching DMSO-only controls were added to cells for indicated times. Compound effects in cells were determined as described[67] and are outlined below.
For western blot analyses, cells were lysed in lysis buffer (20 mM Tris–HCl, pH 8, 150 mM NaCl, 1 mM EDTA, 10 mM MgCl2, 0.5% Triton X-100 (v/v), 12.5 U mL^−1 benzonase (Sigma), complete EDTA-free protease inhibitor cocktail (Roche)). After 3 min incubation at RT, SDS was added to final 1% concentration (w/v). Total cell lysates were resolved in 4–12% Bis-Tris protein gels (Invitrogen) with MOPS buffer (Invitrogen) and transferred for 1.5 h (80 V) onto PVDF membrane (Millipore) in tris-glycine transfer buffer containing 20% methanol and 0.05% SDS. Blots were blocked for 1 h in blocking buffer (5% milk in 0.1% Tween 20/PBS) and incubated with respective primary antibodies: H3K27ac (1:1000, CST #8173), H3 (1:1000, Abcam #10799), p300 (1:2000, Bethyl #A300-358A), CBP (1:1000, Bethyl #A300-362A), actin (1:3000, Abcam #3280), α-tubulin (1:1000, 12G10 DHSB), and α-tubulin-K40ac (1:2000, Abcam #179484) in blocking buffer overnight at 4 °C. After five washes with 0.1% Tween 20/PBS, the blots were incubated with goat anti-rabbit IgG (IRDye 800-conjugated, LiCor #926-32211) and donkey anti-mouse IgG (IRDye 680-conjugated, LiCor #926-68072) antibodies (1:5000) in Odyssey Blocking Buffer (LiCor) for 1 h at RT and washed with 0.1% Tween 20/PBS. The signal was read on an Odyssey scanner (LiCor) at 800 and 700 nm. Representative uncropped images with molecular weight markers are provided (Supplementary Figs. 9, 12, 13).

[10] = tested on: HEK293T and MCF7 cells; test: Cell proliferation by cell confluence; assay type: cell-based; settings: 10 and 30 μM compound, 24 h
Method: as §2, §1

c1cc(SSc2ccns2)sn1 [Compound 2, NU-9056]
AmpC aggregation counter-screen [1]: Detergent-insensitive
IC50 ([2]; original report, 27 (Supplementary References)): 59 µM

CCCCCCCCCCCCCCC=C(C(=O)OCC)C(=O)OCC [Compound 19, LoCAM]
ALARM NMR, (-) DTT ([3]; 0 mM DTT): Negative
ALARM NMR, (+) DTT ([3]; DTT present): Negative
ALARM NMR interpretation ([3]; with and without DTT): Inert as tested
AmpC counter-screen result ([1]; detergent-sensitive modulation): likely aggregators
AmpC aggregation counter-screen [1]: Detergent-sensitive (Aggregators were defined as compounds with significant detergent-dependent changes in AmpC activity (t-test, adjusted P-value <0.05; mean differences greater than 30%))
Absorption max (nm) [4]: Nominal
Absorbance counter-screen ([4]; 300-750 nm): Negative
Fluorescence counter-screen [5]: Negative
Quenching counter-screen [6]: Negative
% inhibition, p300/CBP ([2]; @ 50 µM, ref 23 (Supplementary References)): 74%

O=C(O)CCSc1cc(NS(=O)(=O)c2ccc(Br)cc2)c2ccccc2c1O [Compound 24, JMC2015-6a]
caspase 3/7 activity [7]: induce; also recorded: increased
cytotoxicity by membrane integrity studies ([8]; 30 µM compound, MCF7 cells): cytotoxic
membrane permeability [8]: increased

O=[N+]([O-])c1cc(Br)c2nsnc2c1Sc1ncnc2[nH]cnc12 [Compound 26, JMC2015-2a]
caspase 3/7 activity [7]: induce; also recorded: increased
membrane permeability [8]: increased

O=C1C(Cl)=C(NCCN2CCOCC2)C(=O)c2ncccc21 [NSC-663284]
cellular H3K27ac levels [9]: decreased H3K27ac levels
caspase 3/7 activity [7]: induce; also recorded: increased
membrane permeability [8]: increased

CC(=O)c1c(O)c(C)c(O)c(Cc2c(O)c3c(c(C(=O)/C=C/c4ccccc4)c2O)OC(C)(C)C=C3)c1O [Rottlerin]
effect on cell proliferation (cell confluence) [10]: cytotoxic effects
effect on cell proliferation (cell confluence) ([10]; listed as rottlerin): anti-proliferative effects
cellular H3K27ac levels [9]: decreased H3K27ac levels
